In ChEMBL document CHEMBL3045770, “Design and synthesis of some thieno[2,3-c]pyridazine derivatives of expected anticancer activity” (2013):

Key:
Type in all cases: functional
LOX IMVI = experiment: Cytotoxicity against Homo sapiens (human) LOXIMVI assessed as cell growth at 10 uM after 48 hr by SRB assay relative to control; details: read-out: Activity
COLO 205 = experiment: Cytotoxicity against Homo sapiens (human) COLO205 assessed as cell growth at 10 uM after 48 hr by SRB assay relative to control; details: COLO 205, 48 h, read-out: Activity
SK-MEL-28 = experiment: Cytotoxicity against Homo sapiens (human) SK-MEL-28 assessed as cell growth at 10 uM after 48 hr by SRB assay relative to control; details: SK-MEL-28, 48 h, read-out: Activity
NCI-H23 = experiment: Cytotoxicity against Homo sapiens (human) NCI-H23 assessed as cell growth at 10 uM after 48 hr by SRB assay relative to control; details: NCI-H23, 48 h, read-out: Activity
A549 = experiment: Cytotoxicity against Homo sapiens (human) A549 assessed as cell growth at 10 uM after 48 hr by SRB assay relative to control; details: A549, 48 h, read-out: Activity
NCI-H522 = experiment: Cytotoxicity against Homo sapiens (human) NCI-H522 assessed as cell growth at 10 uM after 48 hr by SRB assay relative to control; details: NCI-H522, 48 h, read-out: Activity
NCI-H460 = experiment: Cytotoxicity against Homo sapiens (human) NCI-H460 assessed as cell growth at 10 uM after 48 hr by SRB assay relative to control; details: NCI-H460, 48 h, read-out: Activity
UACC-257 = experiment: Cytotoxicity against Homo sapiens (human) UACC257 assessed as cell growth at 10 uM after 48 hr by SRB assay relative to control; details: UACC-257, 48 h, read-out: Activity
HOP-92 = experiment: Cytotoxicity against Homo sapiens (human) HOP92 assessed as cell growth at 10 uM after 48 hr by SRB assay relative to control; details: HOP-92, 48 h, read-out: Activity
SNB-75 = experiment: Cytotoxicity against Homo sapiens (human) SNB75 assessed as cell growth at 10 uM after 48 hr by SRB assay relative to control; details: SNB-75, 48 h, read-out: Activity
SNB-19 = experiment: Cytotoxicity against Homo sapiens (human) SNB19 assessed as cell growth at 10 uM after 48 hr by SRB assay relative to control; details: SNB-19, 48 h, read-out: Activity
SF-295 = experiment: Cytotoxicity against Homo sapiens (human) SF295 assessed as cell growth at 10 uM after 48 hr by SRB assay relative to control; details: SF-295, 48 h, read-out: Activity
RPMI-8226 = experiment: Cytotoxicity against Homo sapiens (human) RPMI8226 assessed as cell growth at 10 uM after 48 hr by SRB assay relative to control; details: RPMI-8226, 48 h, read-out: Activity
Hs-578T = experiment: Cytotoxicity against Homo sapiens (human) Hs 578T assessed as cell growth at 10 uM after 48 hr by SRB assay relative to control; details: read-out: Activity
MOLT-4 = experiment: Cytotoxicity against Homo sapiens (human) MOLT4 assessed as cell growth at 10 uM after 48 hr by SRB assay relative to control; details: MOLT-4, 48 h, read-out: Activity
T47D = experiment: Cytotoxicity against Homo sapiens (human) T47D assessed as cell growth at 10 uM after 48 hr by SRB assay relative to control; details: read-out: Activity
MDA-MB-231 = experiment: Cytotoxicity against Homo sapiens (human) MDA-MB-231 assessed as cell growth at 10 uM after 48 hr by SRB assay relative to control; details: MDA-MB-231, 48 h, read-out: Activity
HOP-62 = experiment: Cytotoxicity against Homo sapiens (human) HOP62 assessed as cell growth at 10 uM after 48 hr by SRB assay relative to control; details: HOP-62, 48 h, read-out: Activity
MCF7 = experiment: Cytotoxicity against Homo sapiens (human) MCF7 assessed as cell growth at 10 uM after 48 hr by SRB assay relative to control; details: MCF7, 48 h, read-out: Activity
NCI-H322M = experiment: Cytotoxicity against Homo sapiens (human) NCI-H322M assessed as cell growth at 10 uM after 48 hr by SRB assay relative to control; details: read-out: Activity
UO-31 = experiment: Cytotoxicity against Homo sapiens (human) UO31 assessed as cell growth at 10 uM after 48 hr by SRB assay relative to control; details: UO-31, 48 h, read-out: Activity
Malme-3M = experiment: Cytotoxicity against Homo sapiens (human) MALME-3M assessed as cell growth at 10 uM after 48 hr by SRB assay relative to control; details: read-out: Activity

| SMILES | growth at 10 µM (LOX IMVI) [%] | growth at 10 µM (COLO 205) [%] | growth at 10 µM (SK-MEL-28) [%] | growth at 10 µM (NCI-H23) [%] | growth at 10 µM (A549) [%] | growth at 10 µM (NCI-H522) [%] | growth at 10 µM (NCI-H460) [%] | growth at 10 µM (UACC-257) [%] | growth at 10 µM (HOP-92) [%] | growth at 10 µM (SNB-75) [%] | growth at 10 µM (SNB-19) [%] | growth at 10 µM (SF-295) [%] | growth at 10 µM (RPMI-8226) [%] | growth at 10 µM (Hs-578T) [%] | growth at 10 µM (MOLT-4) [%] | growth at 10 µM (T47D) [%] | growth at 10 µM (MDA-MB-231) [%] | growth at 10 µM (HOP-62) [%] | growth at 10 µM (MCF7) [%] | growth at 10 µM (NCI-H322M) [%] | further results |
| --- | --- | --- | --- | --- | --- | --- | --- | --- | --- | --- | --- | --- | --- | --- | --- | --- | --- | --- | --- | --- | --- |
| CCOC(=O)c1c(Nc2ccc(S(N)(=O)=O)cc2)nnc(-c2ccccc2)c1-c1ccccc1 | 99.4 | 113 | 107 | 115 | 90.9 | 111 | 108 | 101 | 86.5 | 84.6 | 108 | 88.5 | 80.9 | 116 | 78.2 | 91.3 | 108 | 108 | – | – | – |
| CC(=O)Oc1c(C2=NN(C(C)=O)C(c3ccc(F)cc3)O2)sc2nnc(-c3ccccc3)c(-c3ccccc3)c12 (centres undefined) | 99 | 117 | 82.1 | 103 | – | 80.4 | 101 | 113 | 46.2 | 78.1 | 82.6 | – | 71.3 | 120 | 55.1 | 90 | 85.9 | 121 | 73.7 | 85.7 | growth at 10 µM (UO-31): 83.3% |
| CC1=NN(C(=O)c2sc3nnc(-c4ccccc4)c(-c4ccccc4)c3c2O)C(=O)C1 | 97.6 | 111 | 83.5 | 82.6 | 84.5 | 87.4 | 52.2 | 86.8 | 69.5 | 90 | 60.7 | 48.8 | 59.3 | 89.6 | 67.8 | 82.2 | 122 | 82.8 | 85.1 | – | – |
| CC(=O)Oc1c(C2=NN(C(C)=O)C(c3ccccc3[N+](=O)[O-])O2)sc2nnc(-c3ccccc3)c(-c3ccccc3)c12 (centres undefined) | 105 | 108 | 97.1 | 101 | 103 | 92 | 100 | 101 | 72.3 | 76.3 | 88.6 | 85 | 57.4 | 114 | 47.2 | 97.5 | 89.6 | 109 | 64 | – | growth at 10 µM (Malme-3M): 93.2%; growth at 10 µM (UO-31): 78.9% |
| CSc1nnc(-c2sc3nnc(-c4ccccc4)c(-c4ccccc4)c3c2O)o1 | – | 110 | 85.5 | – | 80.5 | 96.6 | 56.7 | 91.6 | – | 78.4 | 66.4 | 40.9 | 67.2 | 98.4 | 61.9 | 75 | 90.4 | 71.1 | 83.5 | – | – |
| Oc1c(-c2nnc(SCc3ccccc3)o2)sc2nnc(-c3ccccc3)c(-c3ccccc3)c12 | 84 | 122 | 98.9 | 106 | – | 88.5 | 111 | 134 | 52.5 | 87.8 | 103 | – | 92.9 | 135 | 86 | 104 | 97.9 | 105 | 82.2 | 93.6 | – |
| CNc1nnc(-c2sc3nnc(-c4ccccc4)c(-c4ccccc4)c3c2O)s1 | 103 | 131 | 111 | 115 | – | 111 | 106 | 94.5 | 116 | 87.9 | 105 | 91.7 | 113 | 109 | 93.3 | 97.6 | 104 | 115 | 88.7 | 106 | growth at 10 µM (Malme-3M): 111% |
| Oc1c(-c2n[nH]c(=S)o2)sc2nnc(-c3ccccc3)c(-c3ccccc3)c12 | – | 106 | 102 | – | 107 | 102 | 116 | 97 | 72.3 | 72.6 | 103 | 112 | 102 | 121 | 91 | 105 | 109 | 99.7 | 92 | – | – |
| Oc1c(-c2nnc(-c3ccccc3)o2)sc2nnc(-c3ccccc3)c(-c3ccccc3)c12 | 65.7 | 102 | 85.2 | 90.4 | – | 97.2 | 39.8 | 99.8 | 81.7 | 84.4 | 57.2 | 42.9 | 64.8 | 97 | 47.9 | 81.1 | 89.2 | 73.7 | 58 | 42.5 | growth at 10 µM (Malme-3M): 83.5% |
| CCOC(=O)c1c(Nc2ccc(S(=O)(=O)Nc3nccs3)cc2)nnc(-c2ccccc2)c1-c1ccccc1 | – | 114 | 113 | – | 110 | 103 | 111 | 104 | 84.3 | 104 | 108 | 101 | 96.5 | 118 | 79.3 | 104 | 115 | 117 | – | – | – |
